How the values were obtained:
Aire KO mice = assay: Pilocarpine-stimulated (maximal) tear secretion in Aire KO mice; format: in vivo, mouse; conditions: between Aire KO treatment conditions; 4.5 mg/kg pilocarpine i.p.
From the text: We next tested whether lacripep restored basal cell identity and barrier function by reducing immune cell infiltration. Prolonged desiccating stress from reduced tear production elicits an immune response in which activated CD4+ T cells home to the corneal epithelium and stroma (primarily accumulating at the limbal region) to modulate epithelial differentiation (17) and direct the development of autoimmune mediated dry eye (18).
(§1) Aire KO female mice aged 5 weeks were used for the study. All mice were topically treated with 5 μL per eye of 4 μM lacripep. Dosing was three times daily for 14 consecutive days. Lissamine green staining assessment and tear secretion assays were performed on each eye before treatment at baseline, 7 days and 14 days post treatment
Mice were anesthetized with isoflurane and basal tear secretion was then measured using a Zone-Quick phenol red thread (as indicated by the length of the tear-absorbed region in 15 seconds). Stimulated tear secretion was measured after 4.5 mg/kg of pilocarpine diluted in saline was injected into the peritoneum (i.p.). Ten minutes later, mice were anesthetized with isoflurane and tear secretion was measured using a Zone-Quick phenol red thread (Showa Yakuhin Kako Co. Ltd., Tokyo, Japan).

Aire KO corneas = assay: Epithelial barrier function by lissamine green uptake; format: in vivo, mouse
From the text: As dry eye results in disruption of ocular surface integrity resulting in cornea barrier dysfunction and, consequently, fluid loss and pathogen invasion (11), we next determined whether lacripep maintains corneal epithelial architecture by analyzing lissamine green uptake at day 7 and 15. […] Restoration of barrier function was further confirmed by analyzing the superficial epithelial layers for the tight junction protein ZO1 which is essential to the structural integrity of the corneal epithelium (12).
as §1
After mice were anesthetized with isoflurane, 5 μL of lissamine green dye (1%) was applied to the lower conjunctival cul-de-sac. […] Lissamine green staining was scored by dividing the cornea into four quadrants, the extent of staining in each quadrant was classified as Grade 0, no staining; Grade 1, sporadic (<25%); Grade 2, diffuse punctate (25-75%), or Grade 3, coalesced punctate staining (75% or more). The total score was calculated separately for each eye and equaled the sum of all four quadrants ranging from 0 (no staining) to 12 (most severe staining). […]

KRT14+ basal cells = assay: Basal progenitor identity (KRT14/KRT6A) and proliferation (Ki67) in cornea; format: in vivo, mouse; conditions: 2 wks treatment; Aire KO cornea
From the text: Although it has been well established that basal progenitor cells (also referred to as transit amplifying cells (13)) undergo mitosis and migration (14) to give rise to the barrier forming suprabasal epithelial and stratified squamous epithelial cells, the impact of dry eye disease on basal cell identity and differentiation remains largely unknown. Thus, we questioned whether basal cell identity was altered in the desiccated cornea through defining the cellular location of KRT6A, a marker of early epithelial cell differentiation in skin (15) and cultured cornea epithelial cells (16). Accordingly, we confirmed that KRT6A marks differentiated corneal epithelial cell types in vivo, as shown by its exclusive expression in KRT14-deficient suprabasal and superficial epithelial cells of healthy cornea at 7 wks of age (FIG. 1G). […] To determine if changes in cell identity alters progenitor cell division, we analyzed the percentage of proliferating K14+ basal cells in treated and untreated corneas. […]
Quantification of corneal epithelial basal progenitor identity and proliferation. The number of basal KRT14+ and KRT14+ KRT6A+ basal epithelial cells were counted in 350 μm sections of central cornea. […] The number of proliferating epithelial progenitors (Ki67+ KRT14+) was presented as a percentage of total KRT14+ cells counted in 350 μm sections of central cornea.

[1] = tested on: Rest, Isl1, Rreb1 regulons; assay: iRegulon transcription factor-gene target regulatory network analysis; parameters: species or system mouse; conditions: day 7; lacripep vs PBS; NES>3
From the text: To identify candidate transcription factors that regulate these gene sets, we performed transcription factor (TF)-gene target regulatory network analysis using iRegulon (37). iRegulon identifies transcription factor-binding motifs that are enriched in the genomic regions of a query gene set and predicts transcription factors that bind to them. […] ISL1 plays an essential role in the generation of sensory and sympathetic neurons (38 39), REST is a master regulator of neurogenesis that plays a role in modulating synaptic plasticity (40-42) and RREB1 regulates axon injury (43). […] The Isl1 exclusive gene set was also extensively enriched in genes involved with functional and structural nerve-mediated processes including visual perception (P=3.5E-27, e.g., Capb4, Vsx1), response to stimulus (P=9.7E-19; e.g., Slc17a7, Ush2a), synapse (P=9.4E-8, e.g. Magi2, Synpr) and neuron projection (P=6.4E-6, e.g., Cdh23, Kif1a) (FIG. 4F).
To identify regulatory networks underlying the impact of lacripep on tissue regeneration, we used the cytoscape application iRegulon (37) to predict master regulators, i.e., transcription factors whose regulons (transcriptional target sets) are highly enriched with the input gene list.

Ac-KQFIENGSEFAQKLLKKFSLLKPWA-NH2 [lacripep, amino terminus acetylated, carboxyl terminus aminated]
maximal tear secretion in response to pilocarpine (Aire KO mice): no difference
lissamine green uptake (Aire KO corneas; day 7, compared to WT controls): increased lissamine green uptake compared to WT controls
epithelial barrier function (lissamine green uptake) (Aire KO corneas; day 15, uptake levels resembling WT corneas): significantly improved
basal cell identity (KRT6A in KRT14+ basal cells) (KRT14+ basal cells): returned to that of WT tissue
upregulated target genes of Isl1 regulon [1]: 394 genes
upregulated target genes of Rest regulon [1]: 184 genes
upregulated target genes of Rreb1 regulon [1]: 254 genes

— US20250302913A1, “LACRIPEP PROMOTES NEUROREGENERATION AND MAINTAINS EPITHELIAL PROGENITOR CELL IDENTITY” (The Regents of The University of California, priority 2022, published 2025)
